Results taken from patent publication US10704024B2, “Method for producing mesenchymal cells with promoted c-MPL receptor expression on cell surface” (AdipoSeeds, Inc., priority 2015, dated 2020).

Tests used:
[1] = tested on: Human primary culture preadipocytes (HPAd); experiment: Culture of preadipocytes in basic medium with TPO; c-MPL receptor positive cells by flow cytometry and immunostaining; type: cell-based
Procedure: In order to check whether expression of a c-MPL receptor on a cell surface of a mesenchymal cell is promoted or not, the following culture experiment was carried out by culturing mesenchymal cells in a mesenchymal cell culturing basic medium comprising a c-MPL receptor active substance. Note that, in the culture experiment, preadipocytes were used as the mesenchymal cells.
Human primary culture preadipocytes (Human Preadipocytes: HPAd) manufactured by CELL APPLICATIONS were prepared. A culture dish was coated with collagen and then a culture medium was added to the dish. As the culture medium, DMEM medium (Dulbecco's Modified Eagle's Medium, manufactured by Life Technology Co.), to which a 10% fetal bovine serum (manufactured by Sigma), a 1% non-essential amino acid(s) (manufactured by Life Technology Co.), a 100 U/mL penicillin-streptomycin solution (manufactured by Life Technology Co.) and 50 ng/mL recombinant human TPO (manufactured by R&D Systems) were added, was used. The preadipocytes were cultured in the culture medium at 37° C. for 3 days. […] The preadipocytes (hereinafter referred to as “the cell population of preadipocytes (TPO+)”) were labeled with a fluorescence-labeled anti c-MPL antibody (manufactured by BD Bioscience), and fluorescence was measured by flow cytometry. When the ratio of c-MPL receptor positive cells was determined in this manner, the ratio was 3.68±0.39%. Note that, the cell population of preadipocytes (TPO+) was immuno-stained with a “fluorescence-labeled anti c-MPL antibody” and “DAPI (4′,6-diamidino-2-phenylindole)”. In the right panel, cells emitting fluorescence derived from the fluorescence-labeled anti c-MPL antibody are observed around the circular fluorescence emitted from nuclei stained with DAPI.
In contrast, the preadipocytes (hereinafter referred to as “cell population of preadipocytes (TPO−)”) were cultured in the same method except that recombinant human TPO was not added to a culture medium. When the ratio of the c-MPL receptor positive cells was determined by flow cytometry, the ratio was 0.67±0.12%. […]

CMK cells [2] = conditions: luciferase gene ligated downstream of the promoter; cited from earlier work
CMK cells [3] = conditions: cited from earlier work
[4] = tested on: cell population of preadipocytes (TPO+); experiment: Differentiation induction of preadipocytes into megakaryocytes/platelets in MKLI medium; CD41 positive cells by flow cytometry; type: cell-based, human
Procedure: In order to check whether “cell population of preadipocytes (TPO+)” obtained in Example 1 can be actually used for efficient production of megakaryocytes/platelets (megakaryocyte and/or platelet), differentiation of preadipocytes into megakaryocyte/platelets was induced in accordance with the method described in Patent Document 1.
A culture dish was coated with collagen and then a culture medium was added to the dish. As the culture medium, MKLI medium (megakaryocyte lineage induction medium) known as a medium which can induce differentiation of hematopoietic stem cells into megakaryocytes/platelets, was used. […]
The “cell population of preadipocytes (TPO+)” obtained in Example 1 was cultured in MKLI medium as mentioned above at 37° C. and in the conditions of a CO2 concentration of 5% for 7 days. After culture, the cell population was separately taken and the ratio (%) of CD41 (specific marker of megakaryocytes or platelets) positive cells in the cell population was determined. […]
In contrast, the ratio of CD41 positive cells in the “cell population of preadipocytes (TPO−)” obtained in Example 1 was determined by flow cytometry. […]

thrombopoietin [TPO]
ratio of c-MPL receptor positive cells ([1]; 50 ng/mL recombinant human TPO, 37° C., 3 days, fluorescence-labeled anti c-MPL antibody, flow cytometry): 3.68±0.39% | increase of the ratio of c-MPL receptor positive cells relative to the case where TPO is not added ([1]; TPO added to culture medium vs not added): about 5.5 time | c-MPL receptor positive cells by immunostaining (FIG. 1, right panel) ([1]; TPO added, 3 days, fluorescence-labeled anti c-MPL antibody and DAPI): a large number of the cells, i.e., c-MPL receptor positive cells are present | activity of the promotor of a c-MPL receptor gene (CMK cells [2]): induced | expression of a c-MPL receptor on the surface of CMK cells (CMK cells [3]): reduces expression | number of megakaryocytes/platelets produced relative to preadipocytes cultured in medium not comprising recombinant TPO ([4]; TPO+ vs TPO− preadipocytes): about 1.7 times | ratio of CD41 positive cells in the cell population ([4]; preadipocytes pre-cultured with TPO, then MKLI medium 37° C., 5% CO2, 7 days, FITC-labeled anti CD41 antibody, flow cytometry): 28.5±2.1%
